Measurements taken from ChEMBL document CHEMBL6127106, “Novel Far-Red Fluorescent 1,4-Dihydropyridines for L-Type Calcium Channel Imaging” (J Med Chem, 2024).

What was measured:
[1] = target: T1, Voltage-gated L-type calcium channel (Homo sapiens, UniProt Q13936+Q13698+Q01668+O60840); experiment: Antagonist activity at L-type calcium channel in human mesoangioblast-derived myotube assessed as reduction in KCL-mediated depolarization of cytosolic (Ca2+) increase at 10 uM incubated for 25 mins in presence of KCl by live-cell imaging based analysis
[2] = target: T2, Voltage-dependent L-type calcium channel subunit alpha-1C (Homo sapiens, UniProt Q13936); experiment: Antagonist activity at Cav1.2 (unknown origin) stably expressed in HEK293 cells at 10 uM assessed as inhibition of LTCC current by Whole cell patch clamp assay relative to control; format: cell-based; details: read-out: Activity
[3] = target: T2, Voltage-dependent L-type calcium channel subunit alpha-1C; experiment: Antagonist activity at Cav1.2 (unknown origin) stably expressed in HEK293 cells assessed as inhibition of LTCC current by Whole cell patch clamp assay; format: cell-based; details: for Activity: human, hek293
[4] = target: T1, Voltage-gated L-type calcium channel; experiment: Antagonist activity at L-type calcium channel in Ca1520-loade human SH-SY5Y cells assessed as inhibition of KCL-mediated depolarization of cytosolic (Ca2+) increase incubated for 5 mins in presence of KCl by live-cell imaging based analysis
[5] = target: T2, Voltage-dependent L-type calcium channel subunit alpha-1C; experiment: Binding affinity to GFP-tagged Cav1.2alpha 1C (unknown orign) transfected with human HeLa cells assessed as increase in fluorescence intensity at 50 nM incubated for 5 mins by fluorescence based confocal microscopy analysis; format: cell-based; details: 0.05 µM
[6] = target: T2, Voltage-dependent L-type calcium channel subunit alpha-1C; experiment: Binding affinity to GFP-tagged Cav1.2alpha 1C (unknown orign) transfected with human HeLa cells assessed as increase in fluorescence intensity at 25 to 100 nM in presence of nifedipine by fluorescence based confocal microscopy analysis; format: cell-based; details: dose 25-100 nM
[7] = target: T2, Voltage-dependent L-type calcium channel subunit alpha-1C; experiment: Binding affinity to GFP-tagged Cav1.2alpha 1C (unknown orign) transfected with human HeLa cells assessed as increase in fluorescence intensity in cytoplasm at 25 to 100 nM in presence of nifedipine by fluorescence based confocal microscopy analysis; format: cell-based; details: dose 25-100 nM
[8] = target: T1, Voltage-gated L-type calcium channel; experiment: Binding affinity to LTCC in endogenously expressing human SH-SY5Y cells assessed as increase in fluorescence intensity at 50 to 100 nM in presence of nifedipine by fluorescence based confocal microscopy analysis; format: cell-based; details: dose 50-100 nM

T2 sequence (Q13936 whole entry): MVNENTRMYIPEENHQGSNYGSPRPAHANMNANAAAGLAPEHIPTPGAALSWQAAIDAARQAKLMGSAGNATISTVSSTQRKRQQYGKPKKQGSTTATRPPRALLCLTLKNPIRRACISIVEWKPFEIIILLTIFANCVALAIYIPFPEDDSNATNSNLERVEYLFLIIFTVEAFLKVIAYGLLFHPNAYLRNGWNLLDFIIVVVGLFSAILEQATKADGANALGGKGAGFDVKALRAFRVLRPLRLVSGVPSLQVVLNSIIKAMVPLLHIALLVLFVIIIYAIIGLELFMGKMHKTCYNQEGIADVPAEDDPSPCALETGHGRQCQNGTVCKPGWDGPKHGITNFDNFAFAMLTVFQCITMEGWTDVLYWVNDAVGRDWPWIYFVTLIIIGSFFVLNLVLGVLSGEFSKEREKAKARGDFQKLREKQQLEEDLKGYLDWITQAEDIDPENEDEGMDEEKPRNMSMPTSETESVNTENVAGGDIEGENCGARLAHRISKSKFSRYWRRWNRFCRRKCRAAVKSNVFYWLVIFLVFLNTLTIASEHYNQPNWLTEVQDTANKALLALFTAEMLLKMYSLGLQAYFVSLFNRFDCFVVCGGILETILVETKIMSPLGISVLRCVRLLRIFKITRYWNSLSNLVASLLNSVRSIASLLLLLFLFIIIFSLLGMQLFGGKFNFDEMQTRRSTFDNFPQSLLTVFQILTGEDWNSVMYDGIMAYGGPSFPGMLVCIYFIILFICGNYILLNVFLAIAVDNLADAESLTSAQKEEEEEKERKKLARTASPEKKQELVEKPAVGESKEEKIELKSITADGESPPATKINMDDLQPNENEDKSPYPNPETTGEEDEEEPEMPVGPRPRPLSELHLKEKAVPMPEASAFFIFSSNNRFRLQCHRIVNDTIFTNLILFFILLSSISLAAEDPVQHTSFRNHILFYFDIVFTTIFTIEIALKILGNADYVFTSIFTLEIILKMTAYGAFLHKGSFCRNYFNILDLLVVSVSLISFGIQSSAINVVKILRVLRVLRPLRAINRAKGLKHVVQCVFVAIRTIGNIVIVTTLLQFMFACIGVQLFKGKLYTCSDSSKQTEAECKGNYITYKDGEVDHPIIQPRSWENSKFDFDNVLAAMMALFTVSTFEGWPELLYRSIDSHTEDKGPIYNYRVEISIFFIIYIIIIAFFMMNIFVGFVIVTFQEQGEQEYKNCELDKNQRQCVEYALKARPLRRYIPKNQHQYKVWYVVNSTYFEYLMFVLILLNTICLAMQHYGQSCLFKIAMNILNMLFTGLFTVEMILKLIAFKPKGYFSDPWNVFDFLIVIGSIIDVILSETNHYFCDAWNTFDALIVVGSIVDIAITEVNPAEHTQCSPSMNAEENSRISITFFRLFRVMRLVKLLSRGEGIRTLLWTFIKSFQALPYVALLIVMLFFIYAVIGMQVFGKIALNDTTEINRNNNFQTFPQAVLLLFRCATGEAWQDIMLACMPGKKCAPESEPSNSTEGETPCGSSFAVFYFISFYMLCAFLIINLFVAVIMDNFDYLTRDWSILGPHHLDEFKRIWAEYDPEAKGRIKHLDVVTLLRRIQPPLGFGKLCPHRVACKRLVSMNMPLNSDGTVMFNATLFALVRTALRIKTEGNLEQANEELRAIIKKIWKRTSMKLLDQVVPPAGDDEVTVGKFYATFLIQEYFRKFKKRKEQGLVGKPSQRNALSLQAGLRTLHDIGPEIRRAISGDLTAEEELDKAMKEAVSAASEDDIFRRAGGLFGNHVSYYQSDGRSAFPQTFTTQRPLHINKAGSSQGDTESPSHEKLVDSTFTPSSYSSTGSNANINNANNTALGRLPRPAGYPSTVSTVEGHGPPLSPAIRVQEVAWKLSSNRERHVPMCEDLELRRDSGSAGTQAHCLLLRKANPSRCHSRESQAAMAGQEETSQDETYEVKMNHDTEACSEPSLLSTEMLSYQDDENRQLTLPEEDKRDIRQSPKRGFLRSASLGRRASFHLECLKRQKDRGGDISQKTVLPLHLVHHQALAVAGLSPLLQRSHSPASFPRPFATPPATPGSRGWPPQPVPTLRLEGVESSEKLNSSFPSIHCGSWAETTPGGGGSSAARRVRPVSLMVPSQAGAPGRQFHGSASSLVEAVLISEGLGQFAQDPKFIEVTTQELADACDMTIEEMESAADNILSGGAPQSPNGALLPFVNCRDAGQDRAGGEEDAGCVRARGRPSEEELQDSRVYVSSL

| Activity [1] | SMILES | inhibition at 10 µM [2] | IC50 [3] | other results |
| --- | --- | --- | --- | --- |
| Active | COC(=O)C1=C(C)NC(C)=C(C(=O)OCCCCCCCCNC(=O)CCCCC[N+]2=C(/C=C/C=C/C=C3/N(C)c4ccccc4C3(C)C)C(C)(C)c3ccccc32)C1c1cccc(Cl)c1Cl (stereo unspecified) | 46% | – | Activity [3]: Not Active |
| Active | COC(=O)C1=C(C)NC(C)=C(C(=O)OCCOCCNC(=O)CCCCC[N+]2=C(/C=C/C=C/C=C3N(C)c4ccccc4C3(C)C)C(C)(C)c3ccccc32)[C@@H]1c1cccc(Cl)c1Cl | 70% | 6.53 µM | – |
| Active | COC(=O)C1=C(C)NC(C)=C(C(=O)OCCOCCNC(=O)CCCCC[N+]2=C(/C=C/C=C/C=C3/N(C)c4ccccc4C3(C)C)C(C)(C)c3ccccc32)C1c1ccccc1[N+](=O)[O-] (stereo unspecified) | 83% | 2.2 µM | – |
| Active | COC(=O)C1=C(C)NC(C)=C(C(=O)OCCCCCCNC(=O)CCCCC[N+]2=C(/C=C/C=C/C=C3/N(C)c4ccccc4C3(C)C)C(C)(C)c3ccccc32)C1c1ccccc1[N+](=O)[O-] (stereo unspecified) | 52% | 12.7 µM | – |
| Active | COC(=O)C1=C(C)NC(C)=C(C(=O)OCCNC(=O)CCCCC[N+]2=C(/C=C/C=C/C=C3/N(C)c4ccccc4C3(C)C)C(C)(C)c3ccccc32)C1c1cccc(Cl)c1Cl (stereo unspecified) | 72% | 4.25 µM | – |
| Active | COC(=O)C1=C(C)NC(C)=C(C(=O)OCCCCCCNC(=O)CCCCC[N+]2=C(/C=C/C=C/C=C3/N(C)c4ccccc4C3(C)C)C(C)(C)c3ccccc32)C1c1cccc(Cl)c1Cl (stereo unspecified) | 50% | 12.5 µM | – |
| Active | COC(=O)C1=C(C)NC(C)=C(C(=O)OCCOCCNC(=O)CCCCC[N+]2=C(/C=C/C=C/C=C3\N(C)c4ccccc4C3(C)C)C(C)(C)c3ccccc32)[C@H]1c1cccc(Cl)c1Cl | 94% | 0.65 µM | IC50 [4]: 1.08 µM; Activity ([4]; human, 5 min, dose 0.1-10000 nM): Dose-Dependent Effect; Activity [5]: Active; Activity [6]: Not Active; Activity [7]: Not Active; Activity [8]: Not Active |
| Active | COC(=O)C1=C(C)NC(C)=C(C(=O)OCCOCCOCCNC(=O)CCCCC[N+]2=C(/C=C/C=C/C=C3\N(C)c4ccccc4C3(C)C)C(C)(C)c3ccccc32)C1c1cccc(Cl)c1Cl (stereo unspecified) | 77% | 3.5 µM | – |
| Active | COC(=O)C1=C(C)NC(C)=C(C(=O)OCCOCCNC(=O)CCCCC[N+]2=C(/C=C/C=C/C=C3/N(C)c4ccccc4C3(C)C)C(C)(C)c3ccccc32)C1c1cccc(Cl)c1Cl (stereo unspecified) | 62% | 7.48 µM | – |
| Active | COC(=O)C1=C(C)NC(C)=C(C(=O)OCCCCCCCCNC(=O)CCCCC[N+]2=C(/C=C/C=C/C=C3/N(C)c4ccccc4C3(C)C)C(C)(C)c3ccccc32)C1c1ccccc1[N+](=O)[O-] (stereo unspecified) | 87% | 1.9 µM | – |
| Active | COC(=O)C1=C(C)NC(C)=C(C(=O)OCCOCCNC(=O)CCCCC[N+]2=C(/C=C/C=C/C=C3/N(C)c4ccccc4C3(C)C)C(C)(C)c3ccccc32)C1c1ccccc1/C=C/C(=O)OC(C)(C)C (stereo unspecified) | 97% | 1.07 µM | – |
| – | COC(=O)C1=C(C)NC(C)=C(C(=O)OC)C1c1ccccc1[N+](=O)[O-] [NIFEDIPINE] | 102% | – | – |

| SMILES | Activity [1] | inhibition at 10 µM [2] | IC50 [3] | other results |
| --- | --- | --- | --- | --- |
| COC(=O)C1=C(C)NC(C)=C(C(=O)OCCCCCCNC(=O)CCCCCNC(=O)Oc2ccc(/C=C/C3=[N+]4C(=Cc5ccc(-c6cccs6)n5[B-]4(F)F)C=C3)cc2)C1c1cccc(Cl)c1Cl (stereo unspecified) | Not Active | 24% | – | Activity [3]: Not Active |
| COC(=O)C1=C(C)NC(C)=C(C(=O)OCCOCCNC(=O)CCCCC[N+]2=C(/C=C/C=C/C=C3/N(C)c4ccccc4C3(C)C)C(C)(C)c3ccccc32)C1c1ccccc1OS(=O)(=O)F (stereo unspecified) | Active | 88% | 1.51 µM | – |
